From patent US11008346B2, “Beta-lactamase inhibitors” (priority 2014, dated 2021)
Read-outs that look alike come from different tables or passages of the source.

What was measured:
KPC-2 β-lactamase = biological target: T1, KPC-2 β-lactamase (Klebsiella pneumoniae, UniProt Q9F663); assay: β-lactamase enzyme inhibition, KPC-2; format: biochemical
T1 construct: made in house; host or cells: E. coli BL21(DE3)
Summary of the method: (§1)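 Native untagged enzymes expressed in E. coli BL21(DE3) and purified by cation exchange and gel filtration were preincubated with inhibitor for 15 min at 37° C. Hydrolysis was followed for 10 min: nitrocefin (100 μM final, 486 nm) for OXA-1 and p99 AmpC, imipenem (300 nm) for KPC-2, cefotaxime (260 nm) for SHV-5; IC50 from initial rates.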

[1] = tested on: E. coli ESBL4 expressing CTX-M-15; assay: broth microdilution MIC, E. coli CTX-M-15; format: cell-based; conditions: Fixed CAZ (ceftazidime) 4 μg/mL
Summary of the method: (§2)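 Following CLSI broth microdilution, plates were read by eye for MIC after 16–20 h incubation at 37 °C. Each well held a fixed 4 μg/mL β-lactam overlay plus test compound serially halved from 32 to 0.25 μg/mL in CAMHB. Inocula came from 3–5 h broth cultures.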

SHV-5 β-lactamase = biological target: T2, SHV-5 β-lactamase (Klebsiella pneumoniae, UniProt P0A3M1); assay: β-lactamase enzyme inhibition, SHV-5; format: biochemical
T2 construct: made in house; host or cells: E. coli BL21(DE3)
Summary of the method: as §1

[2] = tested on: E. cloacae 144200 expressing Class C P99 AmpC; assay: broth microdilution MIC, E. cloacae P99; format: cell-based; conditions: Fixed CAZ (ceftazidime) 4 μg/mL
Summary of the method: as §2

[3] = biological target: T3, VIM-2 metallo β-lactamase (Pseudomonas aeruginosa, UniProt Q9K2N0); assay: β-lactamase enzyme inhibition, VIM-2; format: biochemical; conditions: Nitrocefin 100 μM, 486 nm; 15 min at 37° C. preincubation; read-out: IC50 VIM-2 (Class B)
T3 construct: made in house; host or cells: E. coli BL21(DE3)
Summary of the method: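 VIM-2 purified by Q sepharose anion exchange (50 mM Hepes pH 7.5, 0-600 mM NaCl gradient, two runs, >90% purity). Enzyme preincubated with inhibitor 15 min at 37° C; nitrocefin 100 μM final, absorbance at 486 nm followed 10 min. IC50 from initial hydrolysis rates versus inhibitor-free controls.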

[4] = tested on: P. aeruginosa Ps296 expressing VIM-2; assay: broth microdilution MIC, P. aeruginosa VIM-2; format: cell-based; conditions: Fixed Mero (meropenem) 4 μg/mL
Summary of the method: as §2

p99 AmpC β-lactamase = biological target: T4, p99 AmpC β-lactamase (Enterobacter cloacae, UniProt P05364); assay: β-lactamase enzyme inhibition, p99 AmpC; format: biochemical
T4 construct: made in house; host or cells: E. coli BL21(DE3)
Summary of the method: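 Native untagged E. cloacae p99 AmpC was expressed in E. coli BL21(DE3) and purified by cation exchange and gel filtration. Enzyme was preincubated with inhibitor at 37°C for 15 min.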

OXA-1 β-lactamase = biological target: T5, OXA-1 β-lactamase (Escherichia coli, UniProt P13661); assay: β-lactamase enzyme inhibition, OXA-1; format: biochemical; conditions: Nitrocefin 100 μM, 486 nm; 15 min at 37° C. preincubation; read-out: IC50 OXA-1 (Class D)
T5 construct: made in house; host or cells: E. coli BL21(DE3)
Summary of the method: as §1

[5] = tested on: S. aureus MSSA-7 producing penicillinase PC-1; assay: broth microdilution MIC, S. aureus PC-1; format: cell-based; conditions: Fixed Pip (piperacillin) 4 μg/mL
Summary of the method: as §2

[6] = tested on: K. pneumoniae A-1797 expressing KPC-2 and VIM-4; assay: broth microdilution MIC, K. pneumoniae KPC-2 and VIM-4; format: cell-based; conditions: Fixed Mero (meropenem) 4 μg/mL
Summary of the method: as §2

[7] = tested on: K. pneumoniae 156319 expressing KPC-3; assay: broth microdilution MIC, K. pneumoniae KPC-3; format: cell-based; conditions: Fixed Mero (meropenem) 4 μg/mL
Summary of the method: as §2

[8] = imipenem substrate, 300 nm, 15 min at 37° C. preincubation, read-out: IC50 KPC-2 (Class A)

T4 sequence (P05364 21-381): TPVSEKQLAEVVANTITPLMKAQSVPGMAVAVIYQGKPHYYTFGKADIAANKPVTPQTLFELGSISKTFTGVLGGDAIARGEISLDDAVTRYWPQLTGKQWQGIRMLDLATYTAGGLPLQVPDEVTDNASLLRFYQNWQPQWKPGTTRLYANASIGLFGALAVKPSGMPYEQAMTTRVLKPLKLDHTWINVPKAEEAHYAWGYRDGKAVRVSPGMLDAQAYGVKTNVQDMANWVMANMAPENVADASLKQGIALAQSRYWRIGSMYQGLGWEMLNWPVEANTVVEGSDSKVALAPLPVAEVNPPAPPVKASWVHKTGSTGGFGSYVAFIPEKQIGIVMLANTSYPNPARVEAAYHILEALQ
T2 sequence (P0A3M1 22-286): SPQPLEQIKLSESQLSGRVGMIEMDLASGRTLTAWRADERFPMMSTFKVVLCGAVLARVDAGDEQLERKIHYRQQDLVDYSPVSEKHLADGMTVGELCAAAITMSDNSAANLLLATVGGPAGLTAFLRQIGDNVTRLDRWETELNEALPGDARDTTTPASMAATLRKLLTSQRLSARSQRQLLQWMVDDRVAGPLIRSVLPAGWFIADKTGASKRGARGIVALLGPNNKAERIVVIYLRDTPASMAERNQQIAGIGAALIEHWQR
T1 sequence (Q9F663 25-293, looked up): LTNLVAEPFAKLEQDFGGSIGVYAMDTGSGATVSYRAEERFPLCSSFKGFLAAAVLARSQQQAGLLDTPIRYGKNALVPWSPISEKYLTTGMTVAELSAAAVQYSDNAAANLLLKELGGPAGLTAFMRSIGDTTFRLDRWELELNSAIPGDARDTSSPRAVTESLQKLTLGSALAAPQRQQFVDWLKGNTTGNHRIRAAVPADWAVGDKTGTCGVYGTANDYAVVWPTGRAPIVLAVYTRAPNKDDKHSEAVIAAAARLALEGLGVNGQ
T5 sequence (P13661 26-276): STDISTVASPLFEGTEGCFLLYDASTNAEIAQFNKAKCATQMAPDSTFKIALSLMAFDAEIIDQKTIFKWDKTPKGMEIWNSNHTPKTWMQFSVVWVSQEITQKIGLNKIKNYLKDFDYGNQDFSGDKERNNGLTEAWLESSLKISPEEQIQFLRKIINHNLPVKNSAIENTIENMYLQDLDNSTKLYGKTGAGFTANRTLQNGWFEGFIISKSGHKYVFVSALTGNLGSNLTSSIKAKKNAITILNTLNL

| Structure (SMILES) | IC50 (KPC-2 β-lactamase; [8]) | MIC of exemplary compounds in presence of fixed β-lactams, E. coli ESBL4 CTX-M-15 [1] | IC50 (SHV-5 β-lactamase) | MIC of exemplary compounds in presence of fixed β-lactams, E. cl. 144200 p99 AmpC [2] | IC50 [3] | MIC of exemplary compounds in presence of fixed β-lactams, P. aerug. Ps296 VIM-2 [4] | IC50 (p99 AmpC β-lactamase) | IC50 (OXA-1 β-lactamase) | MIC of exemplary compounds in presence of fixed β-lactams, S. aureus MSSA-7 PC-1 [5] | MIC of exemplary compounds in presence of fixed β-lactams, K.P. A-1797 KPC-2 VIM-4 [6] | MIC of exemplary compounds in presence of fixed β-lactams, K.P. 156319 KPC-3 [7] | IC50 (KPC-2 β-lactamase) |
| --- | --- | --- | --- | --- | --- | --- | --- | --- | --- | --- | --- | --- |
| N#CCCCC(=O)N[C@H]1Cc2cccc(C(=O)O)c2OB1O [Example 14, (R)-3-(4-Cyano-butyrylamino)-2-hydroxy-3,4-dihydro-2H-benzo[e][1,2]oxaborinine-8-carboxylic acid] | < 100 nM | C (C represents the MIC in the presence of ≤4 g/mL of a β-lactamase inhibitor) | < 100 nM | C (C represents the MIC in the presence of ≤4 g/mL of a β-lactamase inhibitor) | 1000 to 10000 nM | C (C represents the MIC in the presence of ≤4 g/mL of a β-lactamase inhibitor) | < 100 nM | < 100 nM | C (C represents the MIC in the presence of ≤4 g/mL of a β-lactamase inhibitor) | B (B represents the MIC in the presence of between 8 and 32 g/mL of a β-lactamase inhibitor) | C (C represents the MIC in the presence of ≤4 g/mL of a β-lactamase inhibitor) |  |
| O=C(CCN1C(=O)CCC1=O)N[C@H]1Cc2cccc(C(=O)O)c2OB1O [Example 34, (R)-3-[3-(2,5-Dioxo-pyrrolidin-1-yl)-propionylamino]-2-hydroxy-3,4-dihydro-2H-benzo[e][1,2]oxaborinine-8-carboxylicacid] | < 100 nM | C (C represents the MIC in the presence of ≤4 g/mL of a β-lactamase inhibitor) | < 100 nM | C (C represents the MIC in the presence of ≤4 g/mL of a β-lactamase inhibitor) | 1000 to 10000 nM | B (B represents the MIC in the presence of between 8 and 32 g/mL of a β-lactamase inhibitor) | < 100 nM | < 100 nM | C (C represents the MIC in the presence of ≤4 g/mL of a β-lactamase inhibitor) | B (B represents the MIC in the presence of between 8 and 32 g/mL of a β-lactamase inhibitor) | B (B represents the MIC in the presence of between 8 and 32 g/mL of a β-lactamase inhibitor) |  |
| O=C(CCc1nccs1)N[C@H]1Cc2cccc(C(=O)O)c2OB1O [Example 31, (R)-2-hydroxy-3-(3-(thiazol-2-yl)propanamido)-3,4-dihydro-2H-benzo[e][1,2]oxaborinine-8-carboxylic acid] | < 100 nM | C (C represents the MIC in the presence of ≤4 g/mL of a β-lactamase inhibitor) | < 100 nM | C (C represents the MIC in the presence of ≤4 g/mL of a β-lactamase inhibitor) | 1000 to 10000 nM | C (C represents the MIC in the presence of ≤4 g/mL of a β-lactamase inhibitor) | < 100 nM | < 100 nM | C (C represents the MIC in the presence of ≤4 g/mL of a β-lactamase inhibitor) | B (B represents the MIC in the presence of between 8 and 32 g/mL of a β-lactamase inhibitor) | C (C represents the MIC in the presence of ≤4 g/mL of a β-lactamase inhibitor) |  |
| N#CCCC(=O)N[C@H]1Cc2cccc(C(=O)O)c2OB1O [Example 8, (R)-3-(3-Cyano-propionylamino)-2-hydroxy-3,4-dihydro-2H-benzo[e][1,2]oxaborinine-8-carboxylic acid] |  | C (C represents the MIC in the presence of ≤4 g/mL of a β-lactamase inhibitor) | < 100 nM | C (C represents the MIC in the presence of ≤4 g/mL of a β-lactamase inhibitor) | 100 to 1000 nM | C (C represents the MIC in the presence of ≤4 g/mL of a β-lactamase inhibitor) | < 100 nM | < 100 nM | C (C represents the MIC in the presence of ≤4 g/mL of a β-lactamase inhibitor) | C (C represents the MIC in the presence of ≤4 g/mL of a β-lactamase inhibitor) | C (C represents the MIC in the presence of ≤4 g/mL of a β-lactamase inhibitor) | < 100 nM |
| O=C(CCc1cncs1)N[C@H]1Cc2cccc(C(=O)O)c2OB1O [Example 32, (R)-2-hydroxy-3-(3-(thiazol-5-yl)propanamido)-3,4-dihydro-2H-benzo[e][1,2]oxaborinine-8-carboxylicacid] | < 100 nM | C (C represents the MIC in the presence of ≤4 g/mL of a β-lactamase inhibitor) | < 100 nM | C (C represents the MIC in the presence of ≤4 g/mL of a β-lactamase inhibitor) | 1000 to 10000 nM | C (C represents the MIC in the presence of ≤4 g/mL of a β-lactamase inhibitor) | < 100 nM | < 100 nM | C (C represents the MIC in the presence of ≤4 g/mL of a β-lactamase inhibitor) | B (B represents the MIC in the presence of between 8 and 32 g/mL of a β-lactamase inhibitor) | C (C represents the MIC in the presence of ≤4 g/mL of a β-lactamase inhibitor) |  |
| N#CCC(=O)N[C@H]1Cc2cccc(C(=O)O)c2OB1O [Example 2, (R)-3-(2-Cyano-acetylamino)-2-hydroxy-3,4-dihydro-2H-benzo[e] [1,2]oxaborinine-8-carboxylic acid] | 100 to 1000 nM | C (C represents the MIC in the presence of ≤4 g/mL of a β-lactamase inhibitor) | < 100 nM | C (C represents the MIC in the presence of ≤4 g/mL of a β-lactamase inhibitor) | 1000 to 10000 nM | B (B represents the MIC in the presence of between 8 and 32 g/mL of a β-lactamase inhibitor) | < 100 nM | < 100 nM | C (C represents the MIC in the presence of ≤4 g/mL of a β-lactamase inhibitor) | C (C represents the MIC in the presence of ≤4 g/mL of a β-lactamase inhibitor) | C (C represents the MIC in the presence of ≤4 g/mL of a β-lactamase inhibitor) |  |
